These results are taken from US20080220140A1, “USE OF PROPENYLPHENYL GLYCOSIDES FOR ENHANCING SWEET SENSORY IMPRESSIONS” (SYMRISE GmbH & Co. KG, priority 2007, published 2008).

Test [1] is described as follows: Low-fat yoghurts with reduced sugar, sensory duo test with 16 panellists. The test is classed as in vivo. To be noted: yoghurt 0.1% fat, 8% versus 10% sucrose; compound 1 0.015%, hesperetin 0.01%. Here is the method:
Comparison preparation with sugar (A) Comparison preparation with reduced sugar content […] Preparations according to the invention with reduced sugar content and compound 1 (C) Comparison preparation with reduced sugar content and hesperetin (D)
The ingredients were mixed and cooled at 5° C.

A short description of test [2]: Enhancement of the sweet impression of sucrose-containing yoghurt, rated 1-10 by a group of experts. The class given is in vivo. To be noted: 200 ppm in yoghurt (0.5% fat content), sucrose 5%. How it is done: In order to quantify the enhancement of a sweet impression by addition of the propenylphenyl glycosides to be used according to the invention, the sweetness of sucrose-containing yoghurt (0.5% fat content) and of samples containing the same amount of sucrose and in addition a specific concentration of the propenylphenyl glycosides of formula (I) to be used according to the invention was determined by a group of experts (rating 1 [extremely slightly sweet] to 10 [extremely sweet]). Evaluation was carried out by calculating the enhancement (in %) of the sweetness impression from the average values of the assessments of the yoghurts containing sucrose (a) or sucrose and propenylphenyl glycoside (b).

As to `COc1ccc(C2CC(=O)c3c(O)cc(O)cc3O2)cc1O` (stereo not drawn) [hesperetin, reference compound], the “Compensation of the loss of sweetness as a result of sugar reduction” value in test [1] is reported as “less good results”.

Turning to `C=CCc1ccc(O[C@@H]2O[C@H](CO)[C@@H](O)[C@H](O)[C@H]2O)cc1` [compound 1, 1-O-[4-(propen-2-enyl)phenyl]-D-glucopyranoside], the “% Enhancement of the sweetness impression” value in test [2] ((16/10), p < 0.05) is given as “+24%”. Also, in test [2] (rating 1 extremely slightly sweet to 10 extremely sweet), the “Sweetness impression (1-10) b) with” value is given as 4.9 ± 1.4.
